Like-named read-outs stand apart in the source and are kept apart here. Marks after values point to notes of the source that are not given here. One block for each compound: values may come before it.
Columns and labels:
NCI-H460 = assay: Proliferation assay of cell lines treated with Compound A, Compound B and fixed-ratio combinations (Cell Titre-Glo, 96 h); type: cell-based, human; settings: NCI-H460, single compound, 96 hour exposure
Description: (§3) Tumor cells were propagated in a humidified 37° C. incubator in their respective growth medium supplemented 10% fetal calf serum. […] Cell viability was assessed after 96 hour exposure with the Cell Titre-Glo Luminescent Cell Viability Assay (Promega). […] IC50 isobolograms were plotted with the actual concentrations of the two compounds on the x- and y-axis, and the combination index (CI) was calculated according to the median-effect model of Chou-Talalay [Chou T. C.

A2780 = assay: 72-hour growth assay of ovary cancer cell lines (Cell Titre-Glo); type: cell-based, human; settings: A2780, single compound, 72 hour exposure
Description: (§4) The effects of combinations of the present invention were evaluated using combination index isobologram analysis for in vitro assessment. The efficacy parameters were the effects in a 72-hour growth assay. Tumor cells were propagated in a humidified 37° C. incubator in their respective growth medium (RPMI) supplemented with 10% fetal calf serum. […] Cell viability was assessed after 72 hour exposure with the Cell Titre-Glo Luminescent Cell Viability Assay (Promega). […] IC50 isobolograms were plotted with the actual concentrations of the two compounds on the x- and y-axis, and the combination index (CI) was calculated according to the median-effect model of Chou-Talalay [Chou T. C.

C4-2B = assay: Proliferation assay of prostate cancer cell lines with R1881 (Cell Titre-Glo, 144 h); type: cell-based, human; settings: 0.3 nM R1881, 144 hour exposure, single compound
Description: (§5) Tumor cells were propagated in a humidified 37° C. incubator in their respective growth medium supplemented with 10% fetal calf serum. […] Cell viability was assessed after 144 hour exposure, except for PC-3 cells where measurement took place after 96 hour exposure, with the Cell Titre-Glo Luminescent Cell Viability Assay (Promega).

MDA-MB-468 = assay: Proliferation assay, mono and fixed-ratio combinations (Cell Titre-Glo, 96 h); type: cell-based, human; settings: MDA-MB-468, single compound, 96 hour exposure
Description: (§6) Tumor cells were propagated in a humidified 37° C. incubator in their respective growth medium supplemented 10% fetal calf serum. […] Cell viability was assessed after 96 hour exposure with the Cell Titre-Glo Luminescent Cell Viability Assay (Promega).

IGR-OV1 cancer xenograft = assay: Human IGR-OV1 endometrial cancer xenograft model; type: in vivo, female NMRI nude mice; settings: IGR-OV1, day 55 after tumor inoculation
Description: (§7) The oral application volume was 10 ml/kg and the intravenous application volume 5 ml/kg. The time interval between two applications per day was 6-7 h. […] The tumor size and the body weight were determined three times weekly. Changes in the body weight compared to the initial body weight at the start of treatment were a measure of treatment-related toxicity (>10%=critical, stoppage in treatment until recovery, >20%=toxic, termination). The tumor area was detected by means of an electronic caliper gauge [length (mm)×width (mm)]. In vivo anti-tumor efficacy is presented as T/C ratio (Treatment/Control) calculated with tumor areas at day of termination of control group by the formula [(tumor area of treatment group at day x)−(tumor area of treatment group at day before first treatment)]/[(tumor area control group at day x)−(tumor area of control group at day before first treatment)]. […] A one-way analysis of variance was performed and differences to the control were compared by a pair-wise comparison procedure (Dunn's method).

[1] = tested on: IGR-OV1 endometrial cancer xenograft; assay: Human IGR-OV1 endometrial cancer xenograft model; type: in vivo, female NMRI nude mice; settings: IGR-OV1; 10 mg/kg, i.v., once daily, 2 days on/5 days off, days 1, 2 each week
Description: as §7

OVCAR-3 = assay: 72-hour growth assay of ovary cancer cell lines (Cell Titre-Glo); type: cell-based, human; settings: OVCAR-3, single compound, 72 hour exposure
Description: as §4

PC-3 = assay: Proliferation assay of prostate cancer cell lines with R1881 (Cell Titre-Glo, 96 h); type: cell-based, human; settings: PC-3, 0.1 nM R1881, 96 hour exposure, single compound
Description: as §5

VCaP = assay: Proliferation assay of prostate cancer cell lines with R1881 (Cell Titre-Glo, 144 h); type: cell-based, human; settings: 0.1 nM R1881, 144 hour exposure, single compound
Description: as §5

Huh-7 = assay: Proliferation assay, mono and fixed-ratio combinations (Cell Titre-Glo, 96 h); type: cell-based, human; settings: Huh-7, single compound, 96 hour exposure
Description: as §3

SNU-449 = assay: as above; type: cell-based, human; settings: SNU-449, single compound, 96 hour exposure
Description: as §6

[2] = tested on: 22Rv1 prostate cancer xenograft; assay: Human 22Rv1 prostate cancer xenograft model; type: in vivo, male Fox Chase SCID mice
Description: as §7

LNCaP = assay: Proliferation assay of prostate cancer cell lines with R1881 (Cell Titre-Glo, 144 h); type: cell-based, human; settings: 0.3 nM R1881, 144 hour exposure, single compound
Description: as §5

PLC/PRF/5 = assay: Proliferation assay, mono and fixed-ratio combinations (Cell Titre-Glo, 96 h); type: cell-based, human; settings: PLC/PRF/5, single compound, 96 hour exposure
Description: as §6

22Rv1 = assay: Proliferation assay of prostate cancer cell lines with R1881 (Cell Titre-Glo, 144 h); type: cell-based, human; settings: 22Rv1, 0.1 nM R1881, 144 hour exposure, single compound
Description: as §5

[3] = tested on: Ri-1 B cell lymphoma xenograft; assay: Human Ri-1 B cell lymphoma xenograft model; type: in vivo, female NOD/SCID mice
Description: as §7

IGR-OV1 = assay: Proliferation assay, mono and fixed-ratio combinations (Cell Titre-Glo, 96 h); type: cell-based, human; settings: IGR-OV1, single compound, 96 hour exposure
Description: as §3

SK-OV-3 = assay: as above; type: cell-based, human; settings: SK-OV-3, single compound, 96 hour exposure
Description: as §3

[4] = tested on: small cell lung cancer cell line NCI-H1048; assay: Full matrix combination, 72-hour proliferation assay (CellTiter-Glo); type: cell-based
Description: (§1) Percentage of control (DMSO) in tumor cell growth assay in vitro is used for the assessment of combination effects.
(§2) The efficacy parameters were the effects in a 72-hour assay. Tumor cells were cultured in 37° C. incubator in their respective growth medium and serum according to the protocol from providers. […] Cell viability was assessed after 72 hour exposure with the Cell Titre-Glo Luminescent Cell Viability Assay (Promega).

[5] = tested on: ovarian cancer cell lines SK-OV-3; assay: as above; type: cell-based; settings: SK-OV-3, single agent Compound A
Description: as §1, §2

[6] = tested on: pancreatic cancer cell line Capan-1; assay: as above; type: cell-based; settings: Capan-1, single agent
Description: as §1, §2

[7] = tested on: SUM-149 breast cancer xenograft; assay: Human SUM-149 breast cancer xenograft model; type: in vivo, female NMRI nude mice
Description: as §7

SUM-149 = assay: Proliferation assay, mono and fixed-ratio combinations (Cell Titre-Glo, 96 h); type: cell-based, human; settings: SUM-149, single compound, 96 hour exposure
Description: as §6

HCT 116 = assay: as above; type: cell-based, human; settings: HCT 116, single compound, 96 hour exposure
Description: as §3

[8] = Ri-1, 10 mg/kg, i.v., once daily, 2 days on/5 days off, days 1, 2 each week
[9] = SUM-149, 10 mg/kg, i.v., once daily, 2 days on/5 days off, days 1, 2 each week

IC50 (NCI-H460): 63 nM | IC50 (A2780): 37.4 nM | IC50 (C4-2B): 92 nM | IC50 (MDA-MB-468): 280 nM | Max. weight loss (%) [1]: −6% | IC50 (OVCAR-3): 120 nM | IC50 (PC-3): 100 nM | IC50 (VCaP): 13 nM | IC50 (Huh-7): 21 nM | IC50 (SNU-449): 100 nM | Max. weight loss (%) ([2]; 22Rv1, 14 mg/kg, i.v., once daily, 2 days on/5 days off, days 1, 2 each week): −8% | IC50 (LNCaP): 8 nM | IC50 (22Rv1): 50 nM | Max. weight loss (%) [3, 8]: −11% | IC50 (SK-OV-3): 82 nM | Max. weight loss (%) [7, 9]: −10% | IC50 (HCT 116): 95 nM
Compound: COc1c(OCCCN2CCOCC2)ccc2c1N=C(NC(=O)c1cnc(N)nc1)N1CCN=C21.Cl.Cl [Compound A, 2-amino-N-[7-methoxy-8-(3-morpholin-4-ylpropoxy)-2,3-dihydroimid-azo[1,2-c]quinazolin-5-yl]pyrimidine-5-carboxamide dihydrochloride]
Anti-tumor efficacy of monotherapy compared to control (IGR-OV1 cancer xenograft): good to moderate and statistically significant improved anti-tumor efficacy | T/C [1]: 0.32* | Anti-tumor efficacy of monotherapy compared to control ([2]; 22Rv1, at the day of control group termination): weak to moderate and statistically significant improved anti-tumor efficacy | T/C ([2]; 22Rv1, 14 mg/kg, i.v., once daily, 2 days on/5 days off, days 1, 2 each week, tumor area at termination of control group): 0.51* | IC50 (PLC/PRF/5): 180 nM | Anti-tumor efficacy of monotherapy compared to control ([3]; Ri-1, day 38 after tumor inoculation): good and statistically significant improved anti-tumor efficacy | T/C [3, 8]: 0.09* | IC50 (IGR-OV1): 19 nM | Concentration at which treatment led to tumor killing ([4]; NCI-H1048, single agent Compound A, 72-hour proliferation assay): 0.025 µM | Concentration at which single agent showed anti-proliferative effects [5]: 0.025 µM | Concentration at which single agent led to moderate anti-proliferation effects [6]: 0.025 µM | Anti-tumor efficacy of monotherapy compared to control ([7]; SUM-149, day 49 after tumor inoculation): weak to moderate and statistically significant improved anti-tumor efficacy | T/C [7, 9]: 0.58* | IC50 (SUM-149): 10 nM

Compound: C[C@@H]1COCCN1c1cc(-c2ccnn2C)c2ccnc(-c3ccn[nH]3)c2n1 [Compound B, 2-[(3R)-3-methylmorpholin-4-yl]-4-(1-methyl-1H-pyrazol-5-yl)-8-(1H-pyrazol-5-yl)-1,7-naphthyridine]
Concentration at which treatment led to tumor killing [4]: 0.253 µM

— US20210369724A1, “COMBINATION OF ATR KINASE INHIBITORS WITH 2,3-DIHYDROIMIDAZO[1,2-C]QUINAZOLINE COMPOUNDS” (Bayer Aktiengesellschaft, priority 2018, published 2021)
